Consider six compounds from US20250019385A1, “SPIROCYCLIC ANNULATED 2-AMINO-3-CYANO THIOPHENES AND DERIVATIVES FOR THE TREATMENT OF CANCER” (Boehringer Ingelheim International GmbH, priority 2023, published 2025).

The structures appear in SMILES notation.

The first data set relates to MKN1 cells. The data set can be described thus: MKN1 CTG proliferation assay (120 h) (gastric cancer, wt amplified). The data set is classed as cell-based. The following applies: Homo sapiens, MKN-1. The protocol:
(§1) MKN1 cells (JCRB0252) are dispensed into black 384-well plates, flat and clear bottom (Greiner, PNr. 781091) at a density of 200 cells per well in 60 μl RPMI-1640 ATCC-Formulation (Gibco #A10491)+10% FCS (fetal calf serum, HyClone, SH30084.03). Cells are incubated overnight at 37° C. in a humidified tissue culture incubator at 5% CO2. Compounds (10 mM stock in DMSO) are added at logarithmic dose series using the ECHO acoustic liquid handler system (Beckman Coulter), normalizing for added DMSO and including DMSO controls. All compound treatments are performed in technical duplicates. For the TO time point measurement, untreated cells are analyzed at the time of compound addition. Plates are incubated for 120 h, and cell viability is measured using CellTiter-Glo luminescent cell viability reagent (Promega product code G7570). Viability (stated as percent of control) is defined as relative luminescence units RLU of each well divided by the RLU of cells in DMSO controls. IC50 values are determined from viability measurements by non-linear regression using a four-parameter model.
(§2) IC50 values of representative compounds according to the invention measured with these assays in the indicated cell lines are presented in Table 46.
With `Cc1cc2c(O[C@@H](C)[C@@H]3CCCN3C)nc(-c3onc4c3CCC[C@@]43CCCc4sc(N)c(C#N)c43)nc2n1[C@@H]1CCOC1` [I-40], the IC50 came out at 0.217 µM.
The same measure, in the same setting: the result for `Cc1cn([C@@H]2CCOC2)c2nc(-c3onc4c3CCC[C@@]43CCCc4sc(N)c(C#N)c43)nc(O[C@@H](C)[C@@H]3CCCN3C)c12` [I-41] reads 0.696 µM; that for `C[C@H](Oc1nc(-c2onc3c2CCC[C@@]32CCCc3sc(N)c(C#N)c32)nc2c1n(C)c(=O)n2[C@@H]1CCOC1)[C@@H]1[C@H](F)CCN1C` [I-4], 0.509 µM.
Still for that read-out and setting: as for `C[C@H](Oc1nc(-c2onc3c2CCC[C@@]32CCCc3sc(N)c(C#N)c32)nc2c1cnn2[C@@H]1CCOC1)[C@@H]1CCCN1C` [I-43], the figure is 0.155 µM.
On the same count and under the same terms, as for `C[C@H](Oc1nc(-c2noc3c2CCC[C@@]32CCCc3sc(N)c(C#N)c32)nc2c1CCCO[C@]21CCOC1)[C@@H]1CCCN1C` [II-10], the figure is 0.01 µM; as for `CO[C@H]1C[C@H](n2c(=O)n(C)c3c(O[C@@H](C)[C@@H]4CCCN4C)nc(-c4onc5c4CCC[C@@]54CCCc5sc(N)c(C#N)c54)nc32)C1` [I-16], 0.353 µM.

For another data set, the system named is Ba/F3 cells KRAS G12C. Put plainly: Ba/F3 proliferation assay (KRAS G12C). The data set is classed as cell-based. The following applies: Mus musculus, BaF3, 72 h, AlamarBlue viability. Put shortly:
(§3)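 Ba/F3 cells retrovirally transduced with KRAS G12 mutant, puromycin-selected, grown IL-3-independent; seeded in RPMI-1640 + 10% FCS without IL-3. Logarithmic compound dose series in duplicate, 72 h at 37° C., AlamarBlue fluorescence as % of DMSO control; IC50 from four-parameter non-linear regression.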
With `Cc1cc2c(O[C@@H](C)[C@@H]3CCCN3C)nc(-c3onc4c3CCC[C@@]43CCCc4sc(N)c(C#N)c43)nc2n1[C@@H]1CCOC1` [I-40], the half-inhibitory concentration (IC50) is 0.023 µM.
For `Cc1cn([C@@H]2CCOC2)c2nc(-c3onc4c3CCC[C@@]43CCCc4sc(N)c(C#N)c43)nc(O[C@@H](C)[C@@H]3CCCN3C)c12` [I-41], inhibition was half-maximal at 0.122 µM (IC50). Against the preceding compound, the IC50 is about 5.3-fold higher.
On to `C[C@H](Oc1nc(-c2onc3c2CCC[C@@]32CCCc3sc(N)c(C#N)c32)nc2c1n(C)c(=O)n2[C@@H]1CCOC1)[C@@H]1[C@H](F)CCN1C` [I-4], for which the IC50 amounted to 0.058 µM.
Same read-out and setting: the result for `C[C@H](Oc1nc(-c2onc3c2CCC[C@@]32CCCc3sc(N)c(C#N)c32)nc2c1cnn2[C@@H]1CCOC1)[C@@H]1CCCN1C` [I-43] reads 0.032 µM; that for `C[C@H](Oc1nc(-c2noc3c2CCC[C@@]32CCCc3sc(N)c(C#N)c32)nc2c1CCCO[C@]21CCOC1)[C@@H]1CCCN1C` [II-10], 0.007 µM.
On the same count and under the same terms, the result for `CO[C@H]1C[C@H](n2c(=O)n(C)c3c(O[C@@H](C)[C@@H]4CCCN4C)nc(-c4onc5c4CCC[C@@]54CCCc5sc(N)c(C#N)c54)nc32)C1` [I-16] reads 0.288 µM.

The test system of the next data set is AsPC-1 cells. The data set can be described thus: AsPC-1 CTG proliferation assay (120 h) (pancreatic cancer, G12D). The data set is classed as cell-based. Particulars: Homo sapiens, ASPC1. The protocol: as §1, with “AsPC-1” for “MKN1”, “(ATCC CRL-1682)” for “(JCRB0252)”, “500” for “200”, “RPMI” for “RPMI-1640”, “(PAN P04-18047)+10%” for “(Gibco #A10491)+10%”
as §2
`Cc1cc2c(O[C@@H](C)[C@@H]3CCCN3C)nc(-c3onc4c3CCC[C@@]43CCCc4sc(N)c(C#N)c43)nc2n1[C@@H]1CCOC1` [I-40] gave a 50% inhibitory concentration (IC50) of 0.5 µM. This counts as sub-micromolar.
On the same count and under the same terms, as for `Cc1cn([C@@H]2CCOC2)c2nc(-c3onc4c3CCC[C@@]43CCCc4sc(N)c(C#N)c43)nc(O[C@@H](C)[C@@H]3CCCN3C)c12` [I-41], the figure is 0.98 µM; as for `C[C@H](Oc1nc(-c2onc3c2CCC[C@@]32CCCc3sc(N)c(C#N)c32)nc2c1n(C)c(=O)n2[C@@H]1CCOC1)[C@@H]1[C@H](F)CCN1C` [I-4], 2.74 µM; as for `C[C@H](Oc1nc(-c2onc3c2CCC[C@@]32CCCc3sc(N)c(C#N)c32)nc2c1cnn2[C@@H]1CCOC1)[C@@H]1CCCN1C` [I-43], 1.39 µM.
For `C[C@H](Oc1nc(-c2noc3c2CCC[C@@]32CCCc3sc(N)c(C#N)c32)nc2c1CCCO[C@]21CCOC1)[C@@H]1CCCN1C` [II-10], it took 0.264 µM to reach half-maximal inhibition (IC50).
Still for that read-out and setting: as for `CO[C@H]1C[C@H](n2c(=O)n(C)c3c(O[C@@H](C)[C@@H]4CCCN4C)nc(-c4onc5c4CCC[C@@]54CCCc5sc(N)c(C#N)c54)nc32)C1` [I-16], the figure is 3.99 µM.

For a further data set, the system named is Ba/F3 cells KRAS G12V. The data set can be described thus: Ba/F3 proliferation assay (KRAS G12V). The data set is classed as cell-based. Particulars: Mus musculus, BaF3, 72 h, AlamarBlue viability. Put shortly: as §3
`Cc1cc2c(O[C@@H](C)[C@@H]3CCCN3C)nc(-c3onc4c3CCC[C@@]43CCCc4sc(N)c(C#N)c43)nc2n1[C@@H]1CCOC1` [I-40] yielded an IC50 of 0.014 µM.
The same measure, in the same setting: as for `Cc1cn([C@@H]2CCOC2)c2nc(-c3onc4c3CCC[C@@]43CCCc4sc(N)c(C#N)c43)nc(O[C@@H](C)[C@@H]3CCCN3C)c12` [I-41], the figure is 0.078 µM.
Turning to `C[C@H](Oc1nc(-c2onc3c2CCC[C@@]32CCCc3sc(N)c(C#N)c32)nc2c1n(C)c(=O)n2[C@@H]1CCOC1)[C@@H]1[C@H](F)CCN1C` [I-4], it took 0.025 µM to reach half-maximal inhibition (IC50).
Still for that read-out and setting: the result for `C[C@H](Oc1nc(-c2onc3c2CCC[C@@]32CCCc3sc(N)c(C#N)c32)nc2c1cnn2[C@@H]1CCOC1)[C@@H]1CCCN1C` [I-43] reads 0.018 µM; that for `C[C@H](Oc1nc(-c2noc3c2CCC[C@@]32CCCc3sc(N)c(C#N)c32)nc2c1CCCO[C@]21CCOC1)[C@@H]1CCCN1C` [II-10], 0.006 µM; that for `CO[C@H]1C[C@H](n2c(=O)n(C)c3c(O[C@@H](C)[C@@H]4CCCN4C)nc(-c4onc5c4CCC[C@@]54CCCc5sc(N)c(C#N)c54)nc32)C1` [I-16], 0.226 µM.

Test system in the next data set: not listed separately
Put plainly: Metabolic (microsomal) stability assay, human liver microsomes (HLM). The following applies: 1 μM test compound, predicted clearance as percent of liver blood flow. The data set is classed as in vitro ADME.
As for `Cc1cc2c(O[C@@H](C)[C@@H]3CCCN3C)nc(-c3onc4c3CCC[C@@]43CCCc4sc(N)c(C#N)c43)nc2n1[C@@H]1CCOC1` [I-40], the “HLM QH” value is reported as 37%.
On the same count and under the same terms, as for `Cc1cn([C@@H]2CCOC2)c2nc(-c3onc4c3CCC[C@@]43CCCc4sc(N)c(C#N)c43)nc(O[C@@H](C)[C@@H]3CCCN3C)c12` [I-41], the figure is less than 24%.
For `C[C@H](Oc1nc(-c2onc3c2CCC[C@@]32CCCc3sc(N)c(C#N)c32)nc2c1n(C)c(=O)n2[C@@H]1CCOC1)[C@@H]1[C@H](F)CCN1C` [I-4], the “HLM QH” value was 49%.
Still for that read-out and setting: as for `C[C@H](Oc1nc(-c2onc3c2CCC[C@@]32CCCc3sc(N)c(C#N)c32)nc2c1cnn2[C@@H]1CCOC1)[C@@H]1CCCN1C` [I-43], the figure is less than 24%; as for `C[C@H](Oc1nc(-c2noc3c2CCC[C@@]32CCCc3sc(N)c(C#N)c32)nc2c1CCCO[C@]21CCOC1)[C@@H]1CCCN1C` [II-10], 47%.
In the case of `CO[C@H]1C[C@H](n2c(=O)n(C)c3c(O[C@@H](C)[C@@H]4CCCN4C)nc(-c4onc5c4CCC[C@@]54CCCc5sc(N)c(C#N)c54)nc32)C1` [I-16], the “HLM QH” value is recorded as less than 24%.
